Patent US20240226211A9, “SEAWEED EXTRACTS, ISOLATED COMPOUNDS, AND METHODS OF TREATMENT” (University of Florida Research Foundation, Incorporated, priority 2017, published 2024)

What was measured:
[1] = system: ARE-luciferase reporter (human NQO1-ARE) in LNCaP cells; experiment: ARE-luc reporter assay in LNCaP cells; type: cell-based; conditions: LNCaP cell line
Description: The ARE-luciferase reporter construct (ARE-luc) contains the core sequence of human NQO1-ARE1. The mock plasmid (pcDNA3-mRFP) was purchased from Addgene (plasmid 13032). The following plasmids were reported by Zhang et a/.2003 [Zhang, D. D., and Hannink, M. (2003) Distinct cysteine residues in Keap1 are required for Keap1-dependent ubiquitination of Nrf2 and for stabilization of Nrf2 by chemopreventive agents and oxidative stress. Mol. Cell. Biol. 23, 8137-8151]. The Keap1-CBD plasmid carries the entire open reading frame (ORF) of human Keap1 fused to the chitin binding domain (CBD) of the Bacillus circulans chitinase A1 gene upstream of the Keap1 stop codon. […]
An ARE-luciferase reporter plasmid and CMV-GFP plasmid (to monitor transfection efficiency) were co-transfected into a human androgen-sensitive prostate cancer cell line, LNCaP (6×10^4 cells/well), and a human neuroblastoma cell line, IMR-32 (3×10^4 cells/well), using Fugene® HD (Roche Diagnostics) in 96-well format. […] After 24 hours of incubation, cells were treated with extracts from Cymopolia barbata, a negative control (DMSO, 1%, v/v), and a positive control ([…] sulforaphane, SF, and tert-butylhydroquinone, tBHQ, respectively.) 24 hours post-treatment, luciferase activity was detected using BriteLite detection reagent (PerkinElmer). […]

Nrf2 = experiment: RNA interference of Nrf2 in IMR-32 cells, NQO1 induction; type: cell-based, human; conditions: IMR-32, 48 h RNAi then 24 h treatment
Description: The media was then carefully aspirated and replaced with a transfection mixture composed of siRNAs (50 nM) and siLentFect™ lipid transfection reagent (Bio-Rad Laboratories) in fresh medium. […] The siRNAs, siGENOME Non-Targeting siRNA Pools and siGENOME SMARTpool (human NFE2L2), were purchased from Dharmacon.
In order to determine whether NQO1 induction is Nrf2 dependent, IMR-32 cells were transfected with siRNA targeting Nrf2 or non-targeting siRNA. After 48 hours of RNAi of Nrf2, cells were treated with the samples or the vehicle control for 24 hours.

iNOS = iNOS transcript levels in RAW264.7 macrophage cells; type: cell-based, mouse; conditions: 10 μM Compound 1, IFN-γ
Description: The RNeasy Mini Kit (Qiagen) was used to collect total RNA from cells, while for mouse tissue, TRIzol reagent (Invitrogen) was used. In each case, total RNAs (2 μg) were reverse-transcribed into cDNAs, which were used as templates for TaqMan gene expression assay (Applied Biosystems) and detected using the 7300 Real-Time PCR System (Applied Biosystems). Each qPCR sample was tested in triplicate as a 25 μL total reaction volume (12.5 μL of Taqman 2× universal master mix, 1.25 μL of a 20× TaqMan gene expression assay probe, 1 μL of the above cDNA, and 10.25 μL of RNase-free sterile water). The qPCR method was designed as following: 50° C. for 2 min, 95° C. for 10 min, and 40 cycles of 95° C. for 15 s and 60° C. for 1 min. Endogenous controls used included GAPDH for IMR-32 cells and β-actin to normalize for RAW264.7 cells and mouse tissues.
RAW264.7 cells were seeded in 6-well plates (8×10^5 cells/well) and incubated at 37° C. overnight.

zebrafish = experiment: Phenotypic toxicity in zebrafish; type: in vivo, Danio rerio; conditions: embryos and adults
Staphylococcus aureus = experiment: Preliminary antibacterial testing; type: cell-based

## CC(C)=CCC/C(C)=C/Cc1cc(O)c(Br)cc1O [Compound 1, (E)-2-bromo-5-(3,7-dimethylocta-2,6-dien-1-yl)benzene-1,4-diol]
[1]
  activation of ARE-luc: most active
Nrf2
  induction of NQO1 transcript levels in siNrf2 transfected cells: inhibited in siNrf2 transfected cells
iNOS
  lowering of induced iNOS transcript levels: > 96%
zebrafish
  toxicity in zebrafish: demonstrate toxicities at fairly low concentrations
Staphylococcus aureus
  antibacterial activity: inhibited
